Laboratory results reported in patent US6855353B2, “Method for producing antioxidant and prevention of cancer” (priority 2002, dated 2005).

Columns and labels:
GSH-Px [1] = experiment: Effect of RES on GSH-Px activity in tissues after 30 days feeding; type: in vivo; conditions: 0.2% RES solution as drinking water up to 30 days
Excerpt: Glutathion peroxidase (GSH-Px) is an important enzyme, which has a high activity in cancer tissues.
Twenty animals were divided into two groups of ten each and fed with either normal drinking water (control group) or 0.2% of RES solution (experimental group); this defined feeding regimen was continued up to 30 days. At the end of the feeding regimen, the animals were sacrificed, and whole skin, small bowel, liver, and lung were removed and immediately placed in ice-cold 0.1 M phosphate buffer, pH 7.4. Tissues were cleaned properly, minced and homogenized in the same buffer, and a 100,000×g supernatant fraction was prepared as described earlier. GSH-Px and GSH-r activities were measured.

SOD = experiment: Effect of RES on super-oxidation during reperfusion of ischemia heart: SOD; set-up: species or system rats
Experimental: (§1) H2O2 in the body is cleared by catalase and glutathione peroxidase (GSH-Px) catalysis. In myocardium, catalase activity of GSH-Px was lower.
(§2) In the present study we examined the effect of RES on super-oxidation during reperfusion of ischemia heart.
(§3) Male rats (280 to 320 g body weight) of Spague-Dawley strain maintained on a standard diet were used in these experiments. The rats were lightly anesthetized with diethyl ether, the left femoral vein was exposed and heparin (200 IU) was administered intravenously. 1 minute after administration of heparin the heart was excised and placed in ice cool perfusion medium until contraction had ceased. The heart was then mounted on the perfusion apparatus.
(§4) Langendorff perfusion for an initial 10 min. period, the perfusion was continued as a working preparation for an additional 30 min. The hearts were all electrically paced at between 265 and 275 beats/min during working perfusion.
(§5) The perfusate was Krebs-Henseleit bicarbonate buffer gassed with 95% oxygen and 5% carbon dioxide. This perfusate contained 11 mM D-glucose during the Langendorff perfusion.
(§6) Aortic pressure, heart rates, coronary flows and aortic outputs were monitored during perfusion. […] The perfusate of control group contained buffer only. At the end the frozen hears were store in liquid nitrogen until assayed for metabolic intermediates. […]

GSH-Px [2] = experiment: Effect of RES on super-oxidation during reperfusion of ischemia heart: GSH-Px; set-up: species or system rats
Experimental: as §1, §2, §3, §4, §5, §6

Lipoperoxides = experiment: Effect of RES on peroxidation (hepatic lipoperoxide content, CCl4-induced hepatic damage); type: in vivo
Experimental: The experiments were performed as previously described. Hepatic lipoperoxide content was determined as described by Uchiyama.
In the present study, the effect of RES on lipoperoxides was examined.
It is known that the pathogenesis of CCl4—induced hepatic damage involved reactive oxidant species increasing from the metabolism. The liver injure caused by CCl4 is due to the formation of a reactive toxic metabolite by the hepatic cytochrome P-450 system.

Cytochrome P-450 = experiment: Effect of RES on hepatic microsomal monooxygenases: cytochrome P-450; type: in vivo; conditions: rat liver microsomes
Experimental: (§7) In the present study, the effect of RES on the activities of hepatic microsomal monooxygenases was examined.
(§8) Microsomal preparations—the microsomes used were prepared from rat's liver. The liver was thoroughly perfused in situ with more than 200 ml of 0.9% NaCl solution. The liver was excised, and homogenized with 4 volumes of isotonic (1.15%) KCl solution in a Potter glass homogenizer. The homogenate was centrifuged at 12,000×g for 25 minutes in a refrigerated centrifuge, and the precipitate was discarded. The microsomes were sedimented by centrifugation at 78,000×g for 90 minutes in a Hitachi model 40P preparative ultracentrifuge. The firmly packed pellet of microsomes was resuspended in isotonic KCl solution with the Potter homogenizer and again centrifuged as above. The washed microsomes were finally suspended in isotonic KCl, usually at a concentration of 10 mg of protein per ml. The resultant microsomal suspensions were stored at 4° C. and used within 2 to 3 days. In these preparations isotonic KCl was employed, instead of the more usual 0.25 M sucrose, so as to minimize the adsorption of hemoglobin on microsomes.
(§9) Cytochrome P-450, NADPH-cytochrome creductase, aminoyrine demethylase and benzpyrene hydroxylase determined as previously described. Other methods are as same as above section.

[3] = tested on: NADPH-cytochrome Creductase; experiment: Effect of RES on hepatic microsomal monooxygenases: NADPH-cytochrome c reductase; type: in vivo; conditions: rat liver microsomes
Experimental: as §7, §8, §9

Aminopyrine demethylase = experiment: Effect of RES on hepatic microsomal monooxygenases: aminopyrine demethylase; type: in vivo; conditions: rat liver microsomes
Experimental: as §7, §8, §9

Benzpyrene hydroxylase = experiment: Effect of RES on hepatic microsomal monooxygenases: benzpyrene hydroxylase; type: in vivo; conditions: rat liver microsomes
Experimental: as §7, §8, §9

[4] = tested on: bovine aortic smooth muscle cell modified LDL; experiment: Effect of RES on lower density lipoprotein oxidation (MDA); type: cell-based; conditions: LDL + 100 μg RES/ml, 37° C., 24 h; x ± s
mouse epidermis = experiment: Rate of [3H] thymidine incorporation in normal and TPA-stimulated mouse epidermis; type: in vivo
Experimental: It is known that tetradecanoyphorbol-13-acetate (TPA) is strong tumor promoter and TPA can remarkable increase [^3H] thymidine incorporation in mouse epidermis and then to induce Epidermis cancer.
Mice were treated with TPA and the rate of [^3H] thymidine incorporation was determined 20 hours later. Male mice (7-9 weeks old) used for experiments. Only mice showing no hair regrowth following shaving were used. Animals were injected intraperitoneally (i.p.) with TPA or […]. After 20 hours, mice were injected i.p. with 60 μCi of [^3H] thymidine (2 Ci/mmol) 20 minutes before sacrifice. Epidermal scrapings were prepared. Homogenized in distilled water at 4° C., and the macromolecules precipitated with 0.4 N trichloracetic acid (TCA). Following 6 washes with 0.2 N TCA at 4° C. and 2 washes with absolute ethanol at room temperature, the nucleic acids were hydrolyzed with 0.5 N TCA at 90° C. for 5 minutes. The hydrolysates (0.2 ml aliquots) were counted in a scintillation counter and assayed for DNA. Each value is the mean±range for three separately treated mice. Each counted aliquot (0.2 ml) contained approximately 10 μg of DNA.

[5] = tested on: p53 gene in gastric cancer cells; experiment: Effect of RES on p53 allelic loss (PCR-SSCP); type: cell-based
Experimental: (§10) The gastric cancer cells and normal cells were cultured in RPMI 1640 medium supplement with 10% fetal bovine serum. All the exons of the p^53 gene were amplified by the polymease chain reaction (PCR) using specific oligonucleotide primers. The PCR products were subjected to single-strand conformation polymorphism (SSCP) analysis.

[6] = tested on: 17p in gastric cancer cells; experiment: Effect of RES on 17p allelic loss (PCR-SSCP); type: cell-based
Experimental: as §10

c-myb RNA = experiment: Inhibition of oncogene expression in ML-1 cells (northern blot): c-myb; type: cell-based, Human
Experimental: (§11) Human myeloblastic leukemic cell (ML-1) had been described previously. Cells were maintained in suspension culture in RPMI 1640 medium supplemented with 7.5% heat-inactivated FBS. Cells growth and viability were assayed by hemocytometer using trypan blue dye exclusion.
(§12) RNA was isolated by the CsCl gradient modification. RNA pellets were washed twice by reprecipitation in ethanol and quantitated by absorbency at […]. RNA analyzed by electrophoresis of 15 μg of RNA through 1.2% agarose formaldehyde gels followed by northern blot transfer to nitrocellulose.
(§13) Single-standard uniformly labeled DNA probes were prepared. Probe of c-myc was a 1.7 Kb cla-Eco RI restriction fragment containing the 3′exon region of human c-myc and probe of c-myb was 1.0 Kb myb-specific Bam HI fragment. Probes for n-ras contained DNA fragments using a modification of the PCR technique. Probes for myb, myc and n-ras were isolated by electrolution. The isolated fragments were labeled to high specific activity with [α^32P]-dCTP (3000 ci/mmol). Prehybridization of the filter was performed. The hybridization mixer contained 50,000 cpm of probe. The probes were hybridized at 58° C. in 15 mM NaCl, […] sodium citrate for 3 hours. After hybridization, they were exposed to XAR-5 film. Oncogene expression was quantitated by densitometer scanning of the autoradiography.

c-myc RNA = experiment: Inhibition of oncogene expression in ML-1 cells (northern blot): c-myc; type: cell-based, Human
Experimental: as §11, §12, §13

n-ras RNA = experiment: Inhibition of oncogene expression in ML-1 cells (northern blot): n-ras; type: cell-based, Human
Experimental: as §11, §12, §13

[7] = tested on: NNK-induced lung tumorigenesis; experiment: NNK-induced lung tumorigenesis; type: in vivo, mice; conditions: RES by injection 20 mg/kg daily; 10 μmol NNK i.p.; pulmonary adenomas counted after sixteen weeks
Experimental: The capacity of tobacco-specific nitrosamine 4-(methylnitrosamino)-1-(3-pyridyl)-1-butanone (NNK) to induce tumor incidence was recognized several years ago. Every group had 20 mice. For treatment group, each mouse was gave RES by injection at dose of 20 mg/kg daily. For control group, each mouse was gave same volume of physiological saline. Three days later, mice were gave 10 μmol NNK (in 0.1 ml saline) by i.p. injection. Sixteen weeks after these treatments the mice were killed and pulmonary adenomas were counted. The statistical significance of bioassay data was determined by student's test.

[8] = ischemia heart, perfusate with 0.05 mg of RES/ml
[9] = pre-perfusion with 4×10^−6 g of RES/ml
[10] = gastric cancer cells treated by RES
[11] = gastric cancer cells treated by RES vs no drug

Oc1ccc(/C=C/c2cc(O)cc(O)c2)cc1 [RES, resveratol]
GSH-Px activity, Liver (GSH-Px [1]; liver): 34 ± 50 n mol NADPH oxidized/mg protein/min | GSH-Px activity, Lung (GSH-Px [1]; lung): 22 ± 3.5 n mol NADPH oxidized/mg protein/min | GSH-Px activity, Skin (GSH-Px [1]; skin): 260 ± 30 n mol NADPH oxidized/mg protein/min | SOD activity (SOD; [8]): 10.5 ± 1.2 μg/protein | SOD activity versus control group (SOD; [9]): significantly higher | GSH-Px (GSH-Px [2]; [8]): 18.9 ± 2.0 μ/g.w | GSH-Px activity versus control group (GSH-Px [2]; [9]): significantly higher | Lipoperoxides T/C, 1h (Lipoperoxides; 1h): 87% | Lipoperoxides, 1 h (Lipoperoxides; 1 h, CCl4-induced hepatic damage): 0.65 ± 0.07 mmol MDA/g liver protein | Lipoperoxides T/C, 3h (Lipoperoxides; 3h): 72% | Lipoperoxides, 3 h (Lipoperoxides; 3 h, CCl4-induced hepatic damage): 0.62 ± 0.069 mmol MDA/g liver protein | Lipoperoxides T/C, 6h (Lipoperoxides; 6h): 55% | Lipoperoxides, 6 h (Lipoperoxides; 6 h, CCl4-induced hepatic damage): 0.60 ± 0.70 mmol MDA/g liver protein | Lipoperoxides T/C, 12h (Lipoperoxides; 12h): 40% | Lipoperoxides, 12 h (Lipoperoxides; 12 h, CCl4-induced hepatic damage): 0.59 ± 0.60 mmol MDA/g liver protein | Lipoperoxides T/C, 24h (Lipoperoxides; 24h): 22% | Lipoperoxides, 24 h (Lipoperoxides; 24 h, CCl4-induced hepatic damage): 0.58 ± 0.58 mmol MDA/g liver protein | Cytochrome P-450 (Cytochrome P-450): 2.65 ± 0.35 nmol/mg protein | NADPH-cytochrome Creductase [3]: 198.5 ± 20 nmol/mg protein | Aminopyrine demethylase (Aminopyrine demethylase): 170.0 ± 18 nmol HCHO/mg protein | Benzpyrene hydroxylase (Benzpyrene hydroxylase): 48.9 ± 5.8 nmol/mg protein | MDA [4]: 2.75 ± 0.29 nmol/mg protein | Specific activity, [3H] thymidine incorporation, TPA (mouse epidermis; TPA-stimulated mouse epidermis, 20 hours after TPA): 33.0 ± 4.5 cpm/μg DNA | Specific activity, [3H] thymidine incorporation, Normal (mouse epidermis; normal mouse epidermis): 32.2 ± 4.0 cpm/μg DNA | Frequency of p53 allelic loss [5, 10]: 12% | Inhibition T/C (p53 allelic loss) [5, 11]: 36% | Frequency of 17p allelic loss [6, 10]: 18.8% | Inhibition T/C (17p allelic loss) [6, 11]: 49% | Inhibition (%) c-myb RNA (c-myb RNA): 25.6 ± 3.5% | Inhibition (%) c-myc RNA (c-myc RNA): 30.1 ± 4.2% | Inhibition (%) n-ras RNA (n-ras RNA): 35.7 ± 3.8% | Tumor incidence [7]: 28.5 ± 3.0%
